PMC8081376 (Mutagenesis, 2020)
Converted amounts (≈) assume the structure as drawn. Where a name gives a salt, the structure may show the parent alone. Read-outs that look alike come from different tables or passages of the source.

Assays:
[1] = tested on: Phenion®FT Skin Models (keratinocytes and fibroblasts)
[2] = tested on: Phenion®FT Skin Models
[3] = tested on: rats and mice; settings: cited from earlier work; for Carcinogenicity: rodent studies, topical for sodium xylene sulfonate, ref [65], [72], [82], [85]
[4] = over 24 h; ref [58]; cited from earlier work
[5] = EpiSkin S9 over 4 h for IQ; ref [58]; cited from earlier work
[6] = tested on: bone marrow, blood, liver, skin; settings: cited from earlier work
[7] = Solubility in vehicle and precipitation on the skin; assay type: physicochemical; settings: for Top dose limited by solubility in acetone: acetone vehicle; for Doses with precipitation on the tissue surface: visual inspection, at cell harvest

Compound	Effect on % tail DNA / DNA migration in APC experiment [1]	Effect on % tail DNA / DNA migration in standard experiment [1]	RS Comet assay overall classification [1]	Dose producing signs of strong cytotoxicity that limited the top dose ([2]; human)	also measured
C1=Cc2cc3cccc4ccc5ccc1c2c5c43 [CPPE, Cyclopenta[c,d]pyrene]	significant increase in % tail DNA was observed in the absence of limiting cytotoxicity at four of the top five doses tested in the keratinocytes	DNA migration was not increased in either cell type	positive	–	Cell type(s) with increased DNA migration [1]: keratinocytes only; Dependence of the result on APC [1]: detected in the presence of APC only; Dose producing signs of strong cytotoxicity that limited the top dose [2]: 75 µg/cm^2
Cc1c(N)cccc1N [2,6-DAT, 2,6-diaminotoluene]	–	did not increase the DNA migration	negative	800 µg/cm^2	Dose(s) exceeding the cytotoxicity limit in main or APC experiments ([2]; human): ≥ 160 µg/cm^2
Nc1ccc(Cl)cc1 [4-Chloroaniline, 4-chloroaniline]	did not induce an increase in DNA migration	did not increase % tail DNA in either cell type	negative	5 µg/cm^2	Dose(s) exceeding the cytotoxicity limit in main or APC experiments ([2]; human): ≥ 10 µg/cm^2; Carcinogenicity [3]: carcinogenic; Metabolism in ex vivo skin [4]: not metabolised; Metabolism by skin S9 [5]: N-acetylated to N-acetyl-4-chloroaniline
Cc1cn([C@H]2C[C@H](N=[N+]=[N-])[C@@H](CO)O2)c(=O)[nH]c1=O [AZT, Azidothymidine]	–	strong dose-dependent increase in % tail DNA in keratinocytes and fibroblasts	positive	700 µg/cm^2	Cell type(s) with increased DNA migration [1]: increased in both cell types
2-Amino-3-methylimidazo[4,5-f]quinolone [IQ]	did not show a statistically significant increase in DNA damage at any dose	moderate increase in % tail DNA was detected in one mid-dose group that was slightly outside the cytotoxicity limits	negative	–	Dose(s) exceeding the cytotoxicity limit in main or APC experiments [2]: 33.3–300 µg/cm^2; IARC class ([3]; ref IARC): 2A; Metabolism in ex vivo skin [4]: not metabolised; Metabolism by skin S9 [5]: not metabolised
CC(C)(C)c1cc(O)ccc1O [TBHQ, Tert-butylhydroquinone]	small but statistically significant increase in DNA migration at the two highest doses in fibroblasts only	Moderate increases in % tail DNA were observed in this experiment but only at the two highest doses that both exceeded the cytotoxicity limit	negative	40 µg/cm^2	Expert call of the performing laboratory in the coded phase [1]: equivocal; Dose(s) with statistically significant increase in DNA migration, fibroblasts ([1]; human): 16 µg/cm^2; Dose(s) exceeding the cytotoxicity limit in main or APC experiments ([2]; human): 20 µg/cm^2
CCOS(C)(=O)=O [EMS, Ethyl methanesulfonate]	–	clear and dose-dependent increase in % tail DNA in both cell types	positive	200 µg/cm^2	Cell type(s) with increased DNA migration [1]: increased in both cell types
CN(C)N=O [DMNA, dimethylnitrosamine]	–	–	negative	–	–
O=C1CCCCC1 [Cyclohexanone]	–	–	–	–	Dependence of the result on APC [1]: positive or equivocal results in the presence of APC only
Oc1cccc(O)c1 [Resorcinol, 1,3-Dihydroxybenzene]	–	–	–	250 µg/cm^2	In vivo micronucleus test in mice [6]: positive; In vivo micronucleus test in rats [6]: no effects
Nc1nc[nH]n1 [Amitrole]	small but statistically significant increase in DNA migration was observed at several doses	no observed cytotoxicity outside the cut-off limits or increases in DNA damage	negative	–	Dose tested without cytotoxicity exceeding the cut-off ([2]; human): 1600 µg/cm^2
c1ccc2c(c1)cc1ccc3cccc4ccc2c1c34 [BaP, benzo[a]pyrene]	–	–	–	–	solubility ([7]; acetone): 10000 µg/mL (≈ 39.6 mM); Top dose limited by solubility in acetone [7]: 160 µg/cm^2; Dose tested without cytotoxicity exceeding the cut-off ([2]; human): 160 µg/cm^2
CC(=O)Nc1ccc2c(c1)Cc1ccccc1-2 [2-AAF, 2-acetylaminofluorene]	significant increase in DNA migration at all doses tested	no increase in DNA migration was observed	positive	–	Doses with precipitation on the tissue surface [7]: ≥ 128 µg/cm^2; Cell type(s) with increased DNA migration [1]: increased in both cell types; Dependence of the result on APC [1]: detected in the presence of APC only; Dose(s) with statistically significant increase in % tail DNA, keratinocytes ([1]; human): 80 µg/cm^2; Dose(s) exceeding the cytotoxicity limit in main or APC experiments ([2]; human): 80 µg/cm^2
COS(C)(=O)=O [MMS, methyl methane sulfonate]	–	–	–	–	Positive control response in standard experiments [1]: clear induction of DNA migration
NC(=S)N(C1CCCCC1)C1CCCCC1 [N,N-dicyclohexyl thiourea]	did not cause any significant increases in % tail DNA	did not induce an increase in % tail DNA in either cell type	negative	–	Dose producing signs of strong cytotoxicity that limited the top dose [2]: 200 µg/cm^2; Dose(s) exceeding the cytotoxicity limit in main or APC experiments [2]: ≥ 160 µg/cm^2; Carcinogenicity [3]: not carcinogenic
O=[N+]([O-])c1ccc(O)cc1 [4-Nitrophenol]	–	statistically significant increase in % tail DNA was observed in keratinocytes only at the two lowest doses	negative	48 µg/cm^2	Dose tested without cytotoxicity exceeding the cut-off ([2]; human): 32 µg/cm^2
Cc1c2ccccc2c(C)c2c1ccc1ccccc12 [DMBA, 7,12-dimethylbenz[a]anthracene]	–	–	–	–	Dependence of the result on APC [1]: detected in the presence of APC only
Sodium xylene sulfonate	no significant increases in % tail DNA	did not induce an increase in % tail DNA in either cell type	negative	–	Dose producing signs of strong cytotoxicity that limited the top dose [2]: 512 µg/cm^2; Dose(s) exceeding the cytotoxicity limit in main or APC experiments [2]: 640 µg/cm^2; Carcinogenicity [3]: negative for carcinogenicity
COc1cc([C@@H]2c3cc4c(cc3[C@@H](O[C@@H]3O[C@@H]5CO[C@@H](C)O[C@H]5[C@H](O)[C@H]3O)[C@H]3COC(=O)[C@H]23)OCO4)cc(OC)c1O [Etoposide]	–	–	–	> 120 µg/cm^2	–
CCc1cc(C(N)=S)ccn1 [Ethionamide]	no significant increases in % tail DNA or cytotoxicity were observed	failed to increase % tail DNA	negative	–	Top dose limited by solubility in acetone [7]: 320 µg/cm^2; Expert call of the performing laboratory in the coded phase [1]: equivocal; Dose(s) with statistically significant increase in DNA migration, fibroblasts ([1]; human): 320 µg/cm^2; Dose tested without cytotoxicity exceeding the cut-off ([2]; human): 240 µg/cm^2; Dose(s) exceeding the cytotoxicity limit in main or APC experiments ([2]; human): 320 µg/cm^2
C[C@@]1(CO)[C@H](O)CC[C@@]2(C)[C@H]1CC[C@H]1C[C@@H]3C[C@@]12CC[C@]3(O)CO [APC, aphidicolin]	–	–	–	–	Effect on background DNA damage (SC + APC vs SC) [1]: no major impact on the background DNA damage
Cc1ccc(N)cc1N [2,4-DAT, 2,4-diaminotoluene]	–	did not increase the % tail DNA of either cell type	negative	1280 µg/cm^2	Dose(s) exceeding the cytotoxicity limit in main or APC experiments ([2]; human): 1200 µg/cm^2
CCCCCl [N-butyl chloride]	did not show any significant increases in DNA migration	–	negative	–	Dose with statistically significant increase in DNA migration, keratinocytes [1]: 400 µg/cm^2; Dose tested without cytotoxicity exceeding the cut-off [2]: 1600 µg/cm^2
OC[C@@H](O)[C@@H](O)[C@H](O)[C@H](O)CO [D-Mannitol, D-mannitol]	did not significantly increase DNA migration	no increase in DNA migration was observed at any dose	negative	–	Top dose limited by solubility in acetone [7]: 320 µg/cm^2
CC1(C)S[C@@H]2[C@H](NC(=O)[C@H](N)c3ccccc3)C(=O)N2[C@H]1C(=O)O [Ampicillin sodium salt]	–	small but statistically significant increase in DNA migration was seen in fibroblasts only at the high dose	negative	–	–
O=P1(N(CCCl)CCCl)NCCCO1 (stereo not shown) [CP, Cyclophosphamide]	–	dose-dependent increase in % tail DNA in both cell types	positive	1200 µg/cm^2	Cell type(s) with increased DNA migration [1]: increased in both cell types
COc1cc(/C=C/C(=O)CC(=O)/C=C/c2ccc(O)c(OC)c2)ccc1O [Curcumin]	did not increase DNA migration in either experiment	marked increase in DNA damage	negative	50 µg/cm^2	Doses with precipitation on the tissue surface [7]: precipitation was present at all the tested doses; Dose(s) exceeding the cytotoxicity limit in main or APC experiments ([2]; human): 50 µg/cm^2
